Source: US5001149A, “Azadirachtin derivative insecticides” (NPI, priority 1987, dated 1991)
≈ marks a conversion by molar mass, not a printed value. Entries after “also recorded” stand apart in the source; their conditions may differ. Like-named read-outs stand apart in the source and are kept apart here.

Columns and labels:
[1] = system: first-instar Heliothis virescens larvae; test: Mortality and growth inhibition in first-instar Heliothis virescens larvae fed in an artificial diet; format: in vivo; conditions: for EC50 (concentration causing 50% growth inhibition): first-instar larvae, artificial diet, in parentheses 95% confidence limits; for LC50 (concentration causing 50% mortality): heliothis virescens, in vivo; for LC50 (concentration causing 50% mortality) / LC50: po; for LC50: Heliothis virescens, read-out: LC50 (concentration causing 50% mortality)
Source text: Mortality and growth inhibition in first-instar Heliothis
virescens larvae fed azadirachtin and eight derivatives in an
^b LC50 values are the concentrations (ppm) causing 50%
^c EC50 values are the concentrations (PPM) causing 50% growth
^d Numbers in parentheses are the 95% confidence limits determined
using the methods of Litchfield and Wilcoxon, J. Pharmacol. Exp. Ther.

[2] = system: fifth-instar Heliothis virescens larvae; test: Relative activity of UV-irradiated compounds in inhibiting adult development; format: in vivo; conditions: for Relative activity, inhibiting adult development: relative to non-irradiated
Description: (§1) Azadirachtin and its derivatives listed above (1.0 mg/ml absolute ethanol) were placed individually in capped quartz NMR tubes (5×180 mm) and were irradiated with two UV germicidal lights (GE, G30T8, 200-280 nm, 30 W) 1.8 m from the source at room temperature for up to 400 h. The controls were identical samples protected from exposure to UV radiation by wrapping with aluminum foil. At selected time intervals, aliquots from both the controls (non-irradiated) and irradiated samples were removed for high-performance liquid chromatography (HPLC) analysis (vide infra) and bioassay.
(§2) Individual larvae were injected per os on the first day of the fifth instar with 1.0 μg of one of the either irradiated or non-irradiated compounds dissolved in 1.0 μl of 75% aqueous ethanol.
(§3) Relative activity of azadirachtin, 3deacetylazadirachtin,
22,23dihydroazadirachtin, 2',3',22,23tetrahydroazadirachtin, all of which
had been exposed for 15, 30, 90, 200, and 400 hours to UV radiation, in
inhibiting the adult development of fifthinstar Heliothis virescens
(§4) larvae. Relative activity is defined as the percentage of larvae injected
relative to the percentage injected with its nonirradiated counterpart

insects [3] = conditions: Kubo & Klocke and other literature; cited from earlier work
insects [4] = test: Antifeedant function; conditions: in vivo
[5] = Stability to UV irradiation by reversed phase HPLC; format: physicochemical; conditions: for half-life / degraded at 90 h: absolute ethanol
Description: Stability of Azadirachtin derivatives was determined as follows:
as §1
Analytical reversed phase HPLC was performed on a phenyl (5 μm) column run isocratically with acetonitrile-water (3:7) (Yamasaki et al.) Peaks were detected at 214 nm. The irradiated samples were compared with their corresponding non-UV-irradiated controls by measuring the height of the peak eluting at the appropriate Rt for each irradiated compound relative to each one's non-irradiated control. Results are expressed as the percent of the initial sample concentration remaining relative to the control. Each time point was done in at least triplicate fashion.

[6] = system: fifth-instar Heliothis virescens larvae; test: Pupal and adult development of fifth-instar larvae injected orally with non-irradiated compounds; format: in vivo; conditions: for mortality at 0.001 mg: Heliothis virescens, light or radiation study, po, read-out: % Mortality Prior to Adult Stage
Description: as §2
Successful and unsuccessful pupal and adult development of fifthinstar
Heliothis Virescens larvae injected orally with 1.0 microgram of either
azadirachtin, 3deacetylazadirachtin, 22,23dihydroazadirachtin, or
2',3',22,23tetrahydroazadirachtin.

[7] = system: fifth-instar Heliothis virescens larvae; test: Relative activity of UV-irradiated compounds in inhibiting pupal development (pupation); format: in vivo; conditions: for Relative activity, inhibiting pupal development: relative to non-irradiated
Description: as §1, §2, §3
22,23dihydroazadirachtin, and 2',3',22,23tetrahydroazadirachtin, all of
which had been exposed for 15, 30, 90, 200, and 400 hours to UV radiation
inhibiting the pupal development of fifthinstar Heliothis virescens
as §4

insect = conditions: Kubo & Klocke; cited from earlier work
[8] = 1.0 microgram per os, fifth instar, non-irradiated
[9] = 1.0 microgram per os, non-irradiated

| Compound | EC50 (concentration causing 50% growth inhibition) [1] | LC50 (concentration causing 50% mortality) [1] | Relative activity, inhibiting adult development ([2]; 15 h UV) | Relative activity, inhibiting adult development ([2]; 30 h UV) | Relative activity, inhibiting adult development ([2]; 90 h UV) | ability to inhibit larvae from reaching the adult stage, in words ([2]; 200 h UV) | Relative activity, inhibiting adult development ([2]; 200 h UV) | Relative activity, inhibiting adult development ([2]; 400 h UV) | Number Unsuccessful Larvae-Pupae [6, 8] | Number Unsuccessful Pupae-Adult [6, 8] | inhibition of pupation, in words [6, 9] | mortality at 0.001 mg [6] | Relative activity, inhibiting pupal development ([7]; 15 h UV) | Relative activity, inhibiting pupal development ([7]; 30 h UV) | Relative activity, inhibiting pupal development ([7]; 90 h UV) | ability to inhibit pupation, in words ([7]; 200 h UV) | Relative activity, inhibiting pupal development ([7]; 200 h UV) | ability to inhibit pupation, in words ([7]; 400 h UV) | Relative activity, inhibiting pupal development ([7]; 400 h UV) | LC50 [1] | further results |
| --- | --- | --- | --- | --- | --- | --- | --- | --- | --- | --- | --- | --- | --- | --- | --- | --- | --- | --- | --- | --- | --- |
| 13,20-O, O-dicarbomethoxy-22,23-dihydroazadirachtin [Compound 6] | 29.0 (20.3-41.5) ppm | 90.0 (37.8-214.5) ppm | – | – | – | – | – | – | – | – | – | – | – | – | – | – | – | – | – | – | – |
| 13-O-methylazadirachtin [Compound 5] | 5.00 (1.54-16.25) ppm | 25.0 (12.2-51.4) ppm | – | – | – | – | – | – | – | – | – | – | – | – | – | – | – | – | – | – | – |
| 13O-acetylazadirachtin [Compound 4] | 0.18 (0.08-0.40) ppm | 0.95 (0.59-1.54) ppm | – | – | – | – | – | – | – | – | – | – | – | – | – | – | – | – | – | – | – |
| C/C=C(\C)C(=O)O[C@H]1C[C@@H](OC(C)=O)[C@@]2(C(=O)OC)CO[C@H]3[C@@H](O)[C@@](C)([C@]45O[C@@]4(C)[C@H]4C[C@@H]5O[C@@H]5OC=C[C@@]54O)[C@H]4[C@]1(CO[C@]4(O)C(=O)OC)[C@@H]32 [Compound 1, azadirachtin] | 0.07 (0.05-0.10) ppm | – | 101.3% | 101.3% | 97.3% | declined slightly | 89.7% | 81.1% | 5 | 0 | equally effective in inhibiting pupation | 98.7% | 98.6% | 98.9% | 85.7% | did decline | 74.2% | An even greater decline | 60.0% | 0.8 µg/mL (≈ 1.11 µM) | ecdysis inhibitory activity, in words (insects [3]): potent ecdysis inhibitory activity; also recorded: the same ecdysis inhibitory activity; antifeedant function, in words (insects [4]): function as antifeedants; degradation, in words ([5]; 400 h UV): none of the three compounds remained in their original state; half-life ([5]; UV 200-280 nm, room temperature, read-out: T1/2 of UV degradation (converted)): 25 h; UV stability, in words ([5]; UV exposure up to 400 h): UV-labile; reaction order of UV degradation, in words ([5]; UV irradiation): degraded in a first-order reaction; degraded at 90 h ([5]; 90 h UV, read-out: compound degraded): > 80%; Adults Deformed, % [6, 8]: 0.7%; Adults, % [6, 8]: 1.3%; Number Adults [6, 8]: 2; Number Adults Deformed [6, 8]: 1; Number Pupae [6, 8]: 10; Pupae, % [6, 8]: 6.7%; Unsuccessful Larvae-Pupae, % [6, 8]: 3.4%; Unsuccessful Pupae-Adult, % [6, 8]: 0%; activity retained, in words ([7]; 90 h UV): retained full activity; activity retained ([7]; 400 h UV): approximately 50%; ability to inhibit pupation, in words ([7]; up to 90 h UV): not appreciably reduced |
| C/C=C(\C)C(=O)OC1CC(O)C2(C(=O)OC)COC3C2C12COC(O)(C(=O)OC)C2C(C)(C12OC1(C)C1CC2OC2OC=CC21O)C3O (stereo not shown) [Compound 2, 3-deacetylazadirachtin] | – | – | 103.2% | 106.3% | 106.3% | remained substantially unchanged until 400 h of irradiation | 96.0% | 72.3% | 13 | 4 | less effective | 94.1% | 115.2% | 135.0% | 139.5% | did decline | 86.8% | An even greater decline | 41.0% | 0.37 µg/mL (≈ 0.545 µM) | degradation, in words [5]: none of the three compounds remained in their original state; reaction order of UV degradation, in words [5]: degraded in a first-order reaction; degraded at 90 h ([5]; uv): > 80%; half-life ([5]; uv): 25 h; activity retained, in words ([7]; 90 h UV): retained full activity; activity retained ([7]; 400 h UV): approximately 50%; ability to inhibit pupation, in words ([7]; up to 90 h UV): not appreciably reduced |
| C/C=C(\C)C(=O)OC1CC(OC(C)=O)C2(C(=O)OC)COC3C2C12COC(O)(C(=O)OC)C2C(C)(C12OC1(C)C1CC2OC2OCCC21O)C3O (stereo not shown) [Compound 3, 22,23-dihydroazadirachtin] | – | – | 103.5% | 100.1% | 103.5% | more so | 69.0% | 74.5% | 13 | 4 | less effective | 96.6% | 113.1% | 104.6% | 100.0% | did decline | 72.7% | An even greater decline | 49.1% | 0.47 µg/mL (≈ 0.65 µM) | degradation, in words [5]: none of the three compounds remained in their original state; reaction order of UV degradation, in words [5]: degraded in a first-order reaction; degraded at 90 h ([5]; uv): > 80%; half-life ([5]; uv): 25 h; activity retained, in words ([7]; 90 h UV): retained full activity; activity retained ([7]; 400 h UV): approximately 50%; ability to inhibit pupation, in words ([7]; up to 90 h UV): not appreciably reduced |
| COC(=O)C1(O)OCC23C(O)CC(OC(C)=O)C4(C(=O)OC)COC(C42)C(O)C(C)(C24OC2(C)C2CC4OC4OCCC42O)C13 (stereo not shown) [Compound 7, 1-detigloyl-22,23dihydroazadirachtin] | – | – | – | – | – | – | – | – | – | – | – | – | – | – | – | – | – | – | – | 2.4 µg/mL (≈ 3.75 µM) | – |
| CCC(C)C(=O)OC1CC(OC(C)=O)C2(C(=O)OC)COC3C2C12COC(O)(C(=O)OC)C2C(C)(C12OC1(C)C1CC2OC2OCCC21O)C3O (stereo not shown) [Compound 8, 2',3',22,23-tetrahydroazadirachtin] | – | – | 100.0% | 100.0% | 100.0% | – | 100.0% | 100.0% | 6 | 1 | equally effective in inhibiting pupation | 100% | 99.4% | 103.7% | 99.7% | most active in inhibiting pupation | 108.0% | its activity declined after 400 h of exposure, it was still more active than the other test compounds | 69.1% | 0.3 µg/mL (≈ 0.414 µM) | ability to inhibit larvae from reaching the adult stage, in words ([2]; 400 h UV): fully active after 400 h of irradiation; Number Pupae [6, 8]: 10; loss in activity with degradation, in words ([7]; 400 h UV): some loss in activity; growth inhibitory and lethal activity, in words ([1]; relative to azadirachtin): retaining full activity; also recorded: fully active |
| COC(=O)C1(O)OCC23C(OC(=O)C(C)(O)C(C)O)CC(OC(C)=O)C4(C(=O)OC)COC(C42)C(O)C(C)(C24OC2(C)C2CC4OC4OCCC42O)C13 (stereo not shown) [Compound 9, 2',3'-dihydroxy-2',3'22,23-tetrahydroazadirachtin] | – | – | – | – | – | – | – | – | – | – | – | – | – | – | – | – | – | – | – | 42 µg/mL (≈ 55.5 µM) | – |
| C/C=C(\C)C(=O)O[C@@H]1C[C@H](O)[C@]23CO[C@H](C(=O)OC)[C@H]2[C@](C)([C@]24O[C@@]2(C)[C@H]2C[C@@H]4O[C@@H]4OC=C[C@@]42O)[C@H](O)[C@@H]2OC[C@@]1(C(=O)OC)[C@H]23 [deacetylazadirachtinol] | – | – | – | – | – | – | – | – | – | – | – | – | – | – | – | – | – | – | – | – | ecdysis inhibitory activity, in words (insects [3]): the same ecdysis inhibitory activity; fold less active than azadirachtin as insect growth inhibitor (insect): about 2.5 fold |
